Data published in patent publication EP0067565A1, “Pharmaceutically active compounds” (BEECHAM GROUP PLC, priority 1981, dated 1982).

Tests used:
rats = assay: Increase in intragastric pressure; type: in vivo; conditions: dose level of 1.0 mg/kg s.c.; conscious but restrained rats; average height of pressure waves, 40 minute period after administration vs pre-dose; Student's t test
Description: Intragastric pressure changes were recorded from previously starved conscious but restrained rats using a saline filled catheter inserted into the lumen of the stomach via a permanent gastric fistula. The catheter was connected to a physiological pressure transducer and pressure changes recorded on a hot wire pen recorder. In each animal a pre-dose period of 40 minutes was allowed to obtain a measure of spontaneous activity. An index of activity was obtained by measuring the average height of pressure waves during 10 minute periods. Values for 4 such periods were obtained during assessment of spontaneous activity and for 40 minute period after administration of compound. Student's "t" test was applied to the difference in average values obtained for spontaneous and post compound activity.

dog = assay: Anti-emetic activity in the dog (apomorphine-induced vomiting); type: in vivo; conditions: compound subcutaneously 30 minutes prior to apomorphine HC1 0.1 mg/kg subcutaneously; for ED50: Canis lupus familiaris, sc, read-out: ED50 values for inhibition of the vomiting response
Description: Compounds were administered subcutaneously 30 minutes prior to administration of a standard dose of apomorphine HC1 (0.1 mg/kg subcutaneously) and the vomiting response compared to that obtained when the same animals were dosed with apomorphine HC1 and vehicle only. The ED50 values for inhibition of the vomiting response determined for compound 11 and 13 were 1.0 mg/kg; for compound 33, 0.1 mg/kg and for compound 35, 0.01 mg/kg.

## COc1cc(N)c(Cl)cc1C(=O)N[C@@H]1C[C@@H]2CCCN2[C@H](C)C1 (racemic) [Compound 8, (±) 4-Amino-5-chloro-2-methoxy-N-[7'β-(9'β-methyl-1'-aza-5'α-H-bicyclo[4,3,n]nonyl)]benzamide]
rats
  index of activity post administration: significantly increased

## COc1cc(N)c(Cl)cc1C(=O)N[C@H]1C[C@@H]2CCCN2[C@H](C)C1 (racemic) [Compound 9, (±) 4-Amino-5-chloro-2-methoxy-N-[7'α-(9'β-methyl-1'-aza-5'α-H-bicyclo[4,3,0]nonyl)]benzamide]
rats
  index of activity post administration: significantly increased

## COc1cc(N)c(Cl)cc1C(=O)N[C@@H]1C[C@@H]2CCCN2[C@@H](C)C1 (racemic) [Compound 11, (±) 4-Amino-5-chloro-2-methoxy-rd-[7'β-(9'α-methyl-1'-aza-5α-H-bicyclo[4,3,0]nonyl)]benzamide]
rats
  index of activity post administration: significantly increased
dog
  ED50: 1 mg/kg

## COc1cc(N)c(Cl)cc1C(=O)N[C@H]1C[C@@H]2CCCN2[C@@H](C)C1 (racemic) [Compound 13, (±) 4-Amino-5-chloro-2-methoxy-N-[7'α-(9'α-methyl-1'-aza-5α-H-bicyclo[4,3,0]nonyl)]benzamide]
dog
  ED50: 1 mg/kg

## CC[C@H]1C[C@H](NC(=O)c2cc(Cl)c(N)cc2OC)C[C@@H]2CCCN12 (racemic) [Compound 33, (±) 4-Amino-5-chloro-2-methoxy-N-[7'β-(9'α-ethyl-1'-aza-5'α-H-bicyclo[4,3,0]nonyl)]benzamide]
dog
  ED50: 0.1 mg/kg

## (±) 4-Amino-5-chloro-2-methoxy-N-[7'β-(9'α-isopropyl-1'-aza-5'-α-H-bicyclo[4,3,0]nonyl)]benzamide [Compound 35]
dog
  ED50 values for inhibition of the vomiting response: 0.01 mg/kg
